In US12691095B2, “Modulators of TNF-alpha activity” (Forward Therapeutics, Inc., priority 2024, dated 2026):
pIC50: −log10 of the molar value.

molecular target: T1, TNF-α (Homo sapiens, UniProt P01375); assay: TNF-α Induced HEK Blue Cellular Assay; assay type: cell-based; conditions: HEK Blue TNFα reporter cells stimulated with TNF-α, 24 hrs, secreted alkaline phosphatase (QUANTI-Blue, 620 nm)
T1 construct: purchased R&D 210-TA-020/CF
Protocol: (§1) Test articles were diluted in DMSO and serially diluted into 384 well assay plate (Corning 3765), at final concentrations ranging from […] to 0.5 nM. HEK Blue™ TNFα reporter cells were added at a final density of 10,000 cell per well in assay media [DMEM (Gibco, cat #21063-029), 10% fetal bovine serum (ExcelBio, cat #FND500), 1% Penicillin-Streptomycin (Solarbio, cat #P1400-100]. TNF-α (R&D 210-TA-020/CF) was then added to the assay plate at a final concentration of […]. This plate was then incubated for 24 hrs at 37° C. and 5% CO2. Secreted alkaline phosphatase expression was then measured using QUANTI- Blue™ (Invivogen), according to manufacturer instructions and read on an Envision microplate reader at 620 nm.
(§2) Inhibition data for test compound over a range of concentration was plotted as percentage inhibition of the test compound (100%=maximum inhibition). IC50 values were determined after correcting for background [(sample read-mean of low control)/(mean of high control-mean of low control)] where by the low control is DMSO without stimulation and high control is DMSO with stimulation. The IC50 is defined as the concentration of test compound which produces 50% inhibition and was quantified using the 4 parameter logistic equation to fit the data.

T1 sequence (P01375 77-233 limits assumed): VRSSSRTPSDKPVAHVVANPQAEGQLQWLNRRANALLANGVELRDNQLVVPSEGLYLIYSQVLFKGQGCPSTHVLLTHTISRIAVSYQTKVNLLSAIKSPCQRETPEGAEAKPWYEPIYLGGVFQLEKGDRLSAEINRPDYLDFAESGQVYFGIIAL

SMILES | pIC50
[2H]C([2H])([2H])N1C(=O)c2cccc(Cl)c2[C@H]2C[C@@H]1c1nc3ccc(-c4ccc(P(C)(C)=O)nc4)cc3n12 [Example 2, (7R,14R)-1-chloro-11-(6-(dimethylphosphoryl)pyridin-3-yl)-6-(methyl-d3)-6,7-dihydro-7,14-methanobenzo[f]benzo[4,5]imidazo[1,2-a][1,4]diazocin-5(14H)-one] | ≥ 7.00
[2H]C([2H])([2H])C([2H])([2H])N1C(=O)c2cccc(Cl)c2[C@H]2C[C@@H]1c1nc3ccc(-c4ccc(P(C)(C)=O)c(F)c4)cc3n12 [Example 10, (7R,14R)-1-chloro-11-(4-(dimethylphosphoryl)-3-fluorophenyl)-6-(ethyl-d5)-6,7-dihydro-7,14-methanobenzo[f]benzo[4,5]imidazo[1,2-a][1,4]diazocin-5(14H)-one] | ≥ 7.00
CP(C)(=O)c1ncc(-c2ccc3nc4n(c3c2)[C@@H]2C[C@H]4NC(=O)c3cccc(Cl)c32)cn1 [Example 4, (7R,14R)-1-chloro-11-(2-(dimethylphosphoryl)pyrimidin-5-yl)-6,7-dihydro-7,14-methanobenzo[f]benzo[4,5]imidazo[1,2-a][1,4]diazocin-5(14H)-one] | ≥ 7.00
[2H]C([2H])([2H])N1C(=O)c2c(C)ccc(Cl)c2[C@H]2C[C@@H]1c1nc3ccc(-c4ccc(P(C)(C)=O)nc4)cc3n12 [Example 6, (7R,14R)-1-chloro-11-(6-(dimethylphosphoryl)pyridin-3-yl)-4-methyl-6-(methyl-d3)-6,7-dihydro-7,14-methanobenzo[f]benzo[4,5]imidazo[1,2-a][1,4]diazocin-5(14H)-one] | ≥ 7.00
CP(C)(=O)c1ccc(-c2ccc3nc4n(c3c2)[C@@H]2C[C@H]4NC(=O)c3cccc(Cl)c32)cn1 [Example 5, (7R,14R)-1-chloro-11-(6-(dimethylphosphoryl)pyridin-3-yl)-6,7-dihydro-7,14-methanobenzo[f]benzo[4,5]imidazo[1,2-a][1,4]diazocin-5(14H)-one] | ≥ 7.00

More lines, now with the values ahead:

pIC50 | SMILES
≥ 7.00 | [2H]C([2H])([2H])N1C(=O)c2c(C)ccc(Cl)c2[C@H]2C[C@@H]1c1nc3ccc(-c4ccc(P(C)(C)=O)c(F)c4)cc3n12 [Example 3, (7R,14R)-1-chloro-11-(4-(dimethylphosphoryl)-3-fluorophenyl)-4-methyl-6-(methyl-d3)-6,7-dihydro-7,14-methanobenzo[f]benzo[4,5]imidazo[1,2-a][1,4]diazocin-5(14H)-one]
≥ 7.00 | [2H]C([2H])([2H])N1C(=O)c2cccc(F)c2[C@H]2C[C@@H]1c1nc3ccc(-c4ccc(P(C)(C)=O)c(F)c4)cc3n12 [Example 9, (7R,14R)-11-(4-(dimethylphosphoryl)-3-fluorophenyl)-1-fluoro-6-(methyl-d3)-6,7-dihydro-7,14-methanobenzo[f]benzo[4,5]imidazo[1,2-a][1,4]diazocin-5(14H)-one]

molecular target: T1, TNF-α; assay: TNF-α Induced THP 1 dual Cellular Assay; assay type: cell-based; conditions: THP1 dual cell reporter cells stimulated with TNF-α, 24 hrs, secreted alkaline phosphatase (QUANTI-Blue, 620 nm)
Protocol: as §1, with “THP1 dual cell” for “HEK Blue™ TNFα”, “QUANTI-Blue™” for “QUANTI- Blue™”
as §2, with “whereby” for “where by”, “4-parameter” for “4 parameter”

SMILES | pIC50
[2H]C([2H])([2H])N1C(=O)c2cccc(F)c2[C@H]2C[C@]1(C)c1nc3ccc(-c4ccc(P(C)(C)=O)c(F)c4)cc3n12 [Example 22, (7R,14R)-11-(4-(dimethylphosphoryl)-3-fluorophenyl)-1-fluoro-7-methyl-6-(methyl-d3)-6,7-dihydro-7,14-methanobenzo[f]benzo[4,5]imidazo[1,2-a][1,4]diazocin-5(14H)-one] | ≥ 7.00
[2H]C([2H])([2H])N1C(=O)c2cccc(F)c2[C@H]2C[C@@H]1c1nc3cc(F)c(-c4ccc(P(C)(C)=O)c(F)c4)cc3n12 [Example 23, (7R,14R)-11-(4-(dimethylphosphoryl)-3-fluorophenyl)-1,10-difluoro-6-(methyl-d3)-6,7-dihydro-7,14-methanobenzo[f]benzo[4,5]imidazo[1,2-a][1,4]diazocin-5(14H)-one] | ≥ 7.00
[2H]C([2H])([2H])N1C(=O)c2cccc(F)c2[C@H]2C[C@@H]1c1nc3cc(F)c(-c4ccc(P(C)(C)=O)nc4)cc3n12 [Example 21, (7R,14R)-11-(6-(dimethylphosphoryl)pyridin-3-yl)-1,10-difluoro-6-(methyl-d3)-6,7-dihydro-7,14-methanobenzo[f]benzo[4,5]imidazo[1,2-a][1,4]diazocin-5(14H)-one] | ≥ 7.00

Results, then the compound that gave them:

pIC50 | SMILES
≥ 7.00 | [2H]C([2H])([2H])N1C(=O)c2cccc(Br)c2[C@H]2C[C@@H]1c1nc3ccc(-c4ccc(P(C)(C)=O)cc4F)cc3n12 [Example 19, (7R,14R)-1-bromo-11-(4-(dimethylphosphoryl)-2-fluorophenyl)-6-(methyl-d3)-6,7-dihydro-7,14-methanobenzo[f]benzo[4,5]imidazo[1,2-a][1,4]diazocin-5(14H)-one]
≥ 7.00 | [2H]C([2H])([2H])N1C(=O)c2cccc(F)c2[C@H]2C[C@@H]1c1nc3ccc(-c4ccc(P(C)(C)=O)c(N)c4)cc3n12 [Example 24, (7R,14R)-11-(3-amino-4-(dimethylphosphoryl)phenyl)-1-fluoro-6-(methyl-d3)-6,7-dihydro-7,14-methanobenzo[f]benzo[4,5]imidazo[1,2-a][1,4]diazocin-5(14H)-one]
≥ 7.00 | [2H]C([2H])([2H])N1C(=O)c2cccc(Br)c2[C@H]2C[C@@H]1c1nc3ccc(-c4ccc(P(C)(C)=O)c(F)c4)cc3n12 [Example 18, (7R,14R)-1-bromo-11-(4-(dimethylphosphoryl)-3-fluorophenyl)-6-(methyl-d3)-6,7-dihydro-7,14-methanobenzo[f]benzo[4,5]imidazo[1,2-a][1,4]diazocin-5(14H)-one]
≥ 7.00 | [2H]C([2H])([2H])N1C(=O)c2cccc(F)c2[C@H]2C[C@@H]1c1nc3ccc(-c4ccc(P(C)(C)=O)cc4)cc3n12 [Example 16, (7R,14R)-11-(4-(dimethylphosphoryl)phenyl)-1-fluoro-6-(methyl-d3)-6,7-dihydro-7,14-methanobenzo[f]benzo[4,5]imidazo[1,2-a][1,4]diazocin-5(14H)-one]
≥ 7.00 | [2H]C([2H])([2H])N1C(=O)c2cccc(F)c2[C@H]2C[C@@H]1c1nc3ccc(-c4ccc(P(C)(C)=O)cc4F)cc3n12 [Example 17, (7R,14R)-11-(4-(dimethylphosphoryl)-2-fluorophenyl)-1-fluoro-6-(methyl-d3)-6,7-dihydro-7,14-methanobenzo[f]benzo[4,5]imidazo[1,2-a][1,4]diazocin-5(14H)-one]
≥ 7.00 | [2H]C([2H])([2H])N1C(=O)c2cccc(F)c2[C@H]2C[C@@H]1c1nc3ccc(-c4ccc(P(C)(C)=O)c(NC)c4)cc3n12 [Example 25, (7R,14R)-11-(4-(dimethylphosphoryl)-3-(methylamino)phenyl)-1-fluoro-6-(methyl-d3)-6,7-dihydro-7,14-methanobenzo[f]benzo[4,5]imidazo[1,2-a][1,4]diazocin-5(14H)-one]
≥ 7.00 | [2H]C([2H])([2H])N1C(=O)c2cccc(F)c2[C@H]2C[C@@H]1c1nc3ccc(-c4ccc(P(C)(C)=O)c(F)c4F)cc3n12 [Example 14, (7R,14R)-11-(4-(dimethylphosphoryl)-2,3-difluorophenyl)-1-fluoro-6-(methyl-d3)-6,7-dihydro-7,14-methanobenzo[f]benzo[4,5]imidazo[1,2-a][1,4]diazocin-5(14H)-one]
≥ 7.00 | [2H]C([2H])([2H])N1C(=O)c2cccc(F)c2[C@H]2C[C@@H]1c1nc3cc(F)c(-c4ccc(P(C)(C)=O)cc4)cc3n12 [Example 20, (7R,14R)-11-(4-(dimethylphosphoryl)phenyl)-1,10-difluoro-6-(methyl-d3)-6,7-dihydro-7,14-methanobenzo[f]benzo[4,5]imidazo[1,2-a][1,4]diazocin-5(14H)-one]
≥ 7.00 | [2H]C([2H])([2H])N1C(=O)c2ccc(F)c(F)c2[C@H]2C[C@@H]1c1nc3ccc(-c4ccc(P(C)(C)=O)c(F)c4)cc3n12 [Example 15, (7R,14R)-11-(4-(dimethylphosphoryl)-3-fluorophenyl)-1,2-difluoro-6-(methyl-d3)-6,7-dihydro-7,14-methanobenzo[f]benzo[4,5]imidazo[1,2-a][1,4]diazocin-5(14H)-one]
≥ 7.00 | [2H]C([2H])([2H])N1C(=O)c2cc(F)cc(F)c2[C@H]2C[C@@H]1c1nc3ccc(-c4ccc(P(C)(C)=O)c(F)c4)cc3n12 [Example 13, (7R,14R)-11-(4-(dimethylphosphoryl)-3-fluorophenyl)-1,3-difluoro-6-(methyl-d3)-6,7-dihydro-7,14-methanobenzo[f]benzo[4,5]imidazo[1,2-a][1,4]diazocin-5(14H)-one]
